# Source: US20080233202A1, “Fungicidal Compositions” (priority 2004, published 2008)
# How the values were obtained:
# [1] = tested on: cucurbit PM pathogen Sphaerotheca fuliginea; assay: Trial 3 main treatments, PM disease severity on ‘Delica’ squash leaves; assay type: in vivo
# Procedure: Squash (Cucurbita maxima) cv ‘Delica’ were raised and the first true leaf on each plant was artificially inoculated as in Trial 1.
# Treatment applications were normally at 7-day intervals (although 14 and 21 day intervals were also used in Trial 3) and involved spraying all leaves to run-off (approximately 5 ml per leaf) using hand-held mister-bottles. The first application commenced 3-4 days after artificial inoculation (except for elicitor treatments in Trial 3), when the non-inoculated leaves on plants were still largely disease-free, and plants had up to 8 true leaves (i.e. were 5-6 weeks old).
# Disease severity on true leaves 1-8 was rated weekly or fortnightly as discussed above.
# Data were analysed as a repeated measures design (RMD) to determine the treatment effect on disease severity over time. Treatment differences at final disease assessment were also assessed as a randomised block design (RBD), by analysis of variance (ANOVA), with means separation by Fisher's Least Significant Difference (LSD) (P<0.05), using SAS software, version 8.01 TS (SAS Institute, Cary, N.C.).
# Eight replicate squash plants per treatment (1 replicate per block) were assessed.
# The first true leaf of each plant was artificially inoculated with PM, while all other leaves on the plant were allowed to infect naturally. Elicitors (treatments 13-15) were first applied 5 days before artificial inoculation, to allow time for induction of host defences prior to advent of the PM fungus, and every three weeks thereafter. […] All other treatments were first applied 3 days after artificial inoculation and at weekly (treatments 1-4, 7-8, 10-12, 16-20), fortnightly (treatment 5), or 3 weekly intervals (treatments 6 and 9) thereafter.
# Treatment effect over time at 0, 2, 4, 6 and 7 weeks was assessed.
# [2] = tested on: Cladosporium cladosporiodes spores; assay: Spore germination inhibition, 96-multiwell assay; assay type: cell-based; parameters: key: ****: No germination (score 4); ***: Slight germination (3); **: Moderate germination (2); *: Germination, less than control (1); —: No activity = germination same as the control (score 0); conditions: after 24 hours incubation at 19° C.
# Procedure: (§1) The effect of selected treatments on the germination of three other important horticultural fungi, Botrytis cinerea (causal agent of grey mould on grapes, kiwifruit, tomatoes, strawberries, etc), Monilinia fructicola (causal agent of brown rot on stonefruit), and Cladosporium cladosporiodes (one of the fungi that can cause sooty mould) were also assessed using the 96-multiwell assay of Wilson et al (10).
# [3] = tested on: Monilinia fructicola spores; assay: Spore germination inhibition, 96-multiwell assay; assay type: cell-based; parameters: key: ****: No germination (score 4); ***: Slight germination (3); **: Moderate germination (2); *: Germination, less than control (1); —: No activity = germination same as the control (score 0); conditions: after 24 hours incubation at 19° C.
# Procedure: as §1
# [4] = tested on: Botrytis cinerea spores; assay: Spore germination inhibition, 96-multiwell assay; assay type: cell-based; parameters: key: ****: No germination (score 4); ***: Slight germination (3); **: Moderate germination (2); *: Germination, less than control (1); —: No activity = germination same as the control (score 0); conditions: after 24 hours incubation at 19° C.
# Procedure: as §1
# [5] = tested on: Squash (Cucurbita maxima) cv ‘Delica’; assay: Trial 3 leaf health rating and phyto-toxicity; assay type: in vivo; parameters: key: A: Perfect condition - no abiotic or biotic blemishes.; B: Small blemishes e.g. chlorotic patches, rubbing, insect damage; C: Severe/advanced chlorosis, necrosis or leaf distortion; D: Leaf dead
# Procedure: Qualitative assessments of leaf health/condition were made at the same time as disease severity assessments, using the arbitrary scale described below.
# Leaf health ratings were assessed using the criteria described in Table 4. Each value presented in Table 12 is a median value rather than an arithmetic mean.
# [6] = tested on: Botrytis cinerea, Cladosporium cladosporiodes, and Monilinia fructicola spores; assay: Spore germination inhibition, overall rating over the three fungi; assay type: cell-based; conditions: sum of all the germination scores; maximum 12 (greatest inhibition), minimum 0
# Procedure: as §1
# The Overall Rating is the sum of all the germination scores for each treatment (maximum possible value: 12 (greatest inhibition); minimum: 0 (no inhibition)).
# [7] = tested on: cucurbit PM pathogen Sphaerotheca fuliginea; assay: Trial 3 additional treatments, PM disease severity on ‘Delica’ squash leaves; assay type: in vivo; conditions: non-inoculated leaves (FIG. 7)
# Excerpt: Treatments were first applied 3 days after artificial inoculation of leaf 1, and at weekly intervals thereafter. There were 4 replicates per treatment, with two replicates per table per glasshouse.
Molecule,course of PM disease over time ([1]; inoculated leaves),"PM Disease Rating ([1]; inoculated leaves, 0 wks, scale 0-6 of Table 1)","PM Disease Rating ([1]; inoculated leaves, 2 wks)","PM Disease Rating ([1]; inoculated leaves, 4 wks)","PM Disease Rating ([1]; inoculated leaves, 6 wks)","PM Disease Rating ([1]; inoculated leaves, 7 wks)","course of natural PM infections over time ([1]; non-inoculated leaves, 0-7 weeks)","PM Disease Rating ([1]; non-inoculated leaves, 0 wks, scale 0-6 of Table 1)","PM Disease Rating ([1]; non-inoculated leaves, 2 wks)","PM Disease Rating ([1]; non-inoculated leaves, 4 wks)","PM Disease Rating ([1]; non-inoculated leaves, 6 wks)","PM Disease Rating ([1]; non-inoculated leaves, 7 wks)","Germination inhibition, Clado. [2]","Germination inhibition, Monilinia [3]","Germination inhibition, Botrytis [4]","leaf health rating ([5]; Trial 3 main, non-inoculated leaves after 7 weeks of treatment application, median value)",Overall Rating [6],"leaf health rating ([5]; Trial 3 additional, non-inoculated leaves, after 7 weeks)",course of PM disease severity over time [7]
"CCCCC/C=C\C/C=C\CCCCCCCC(=O)O [Linol, Linoleic acid]",disease increased steadily throughout the trial,2.63,5.25,5.88,6.00,6.00,rapid breakdown in protective activity,0.63,2.77,5.56,6.00,6.00,—,—,—,F (More than 20% of the leaf area is dead),0,,
Di-glycerine-mono-laurate [DGML],,,,,,,,,,,,,****,****,**,,10,E,increased significantly over time
